# Experimental data published in patent US20240279212A1, “NOVEL INTERMEDIATE FOR PREPARATION OF PYROXASULFONE” (UPL LIMITED, priority 2021, published 2024).
# Experiments:
# [1] = Bulk density of Pyroxasulfone prepared in Example 8; type: physicochemical; settings: product of Example 8 (H2O2/sodium tungstate oxidation, isopropyl alcohol/water treatment)
# [2] = Particle size distribution of Pyroxasulfone prepared in Example 8; type: physicochemical; settings: product of Example 8 (H2O2/sodium tungstate oxidation, isopropyl alcohol/water treatment)
structure (smiles),measurement,setting,value
"Cn1nc(C(F)(F)F)c(CS(=O)(=O)C2=NOC(C)(C)C2)c1OC(F)F [Pyroxasulfone, 3-[5-(difluoromethoxy)-1-methyl-3-(trifluoromethyl)pyrazol-4-ylmethylsulfonyl]-4,5-dihydro-5,5-dimethyl-1,2-oxazole]",Bulk density,[1],0.54 to 0.57 g/mL
same,Particle Size Distribution: D50,[2],113.30 μm
